According to paper PMC10041534, “Development of Fluorescent 4-[4-(3H-Spiro[isobenzofuran-1,4′-piperidin]-1′-yl)butyl]indolyl Derivatives as High-Affinity Probes to Enable the Study of σ Receptors via Fluorescence-Based Techniques” (Journal of Medicinal Chemistry, 2023):
Values joined by “and” are separate entries in the source; they are usually repeats but may differ in a detail not shown here. Equal values may be shown once. Read-outs that look alike come from different tables or passages of the source. Marks after values point to notes of the source that are not given here.

Key:
σ1 receptor [1] = details: Figure 1 reference compounds and fluorescent ligands; cited from earlier work
σ2 receptor [2] = molecular target: T1, σ2 receptor (Rattus norvegicus, UniProt Q5U3Y7); experiment: σ2 receptor radioligand binding assay with [3H]DTG, rat liver membranes; details: for Ki: [3H]DTG with 1 μM (+)-pentazocine, rat liver membranes, mean of at least two experiments in duplicate, read-out: Ki ± SEM σ2; for σ2 selectivity over σ1: from Ki values at σ1 and σ2
T1 construct: from tissue; host or cells: rat liver (Wistar Hannover rats, Envigo)
T1 sequence (Q5U3Y7 1-176): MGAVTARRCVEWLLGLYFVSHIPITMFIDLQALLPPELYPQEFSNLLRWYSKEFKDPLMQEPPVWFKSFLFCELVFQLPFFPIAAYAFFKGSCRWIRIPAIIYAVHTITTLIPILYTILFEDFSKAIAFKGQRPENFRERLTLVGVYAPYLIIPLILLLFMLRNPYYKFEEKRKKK
Method: (§1) All of the procedures for the binding assays were previously described. σ1 and σ2 receptor binding assays were carried out according to the literature.[25] […] Incubations were stopped by addition of 1 mL of ice-cold buffer [50 mM TRIS (pH 8.0)], and then the suspension was filtered through GF/B presoaked in 0.3% polyethylenimine (PEI) for at least 60 min prior to use. The filters were washed twice with 1 mL of ice-cold buffer. […] Incubations were stopped by addition of 1 mL of ice-cold buffer [50 mM TRIS (pH 8.0)], and then the suspension was filtered through GF/B presoaked in 0.5% polyethylenimine (PEI) for at least 60 min prior to use. The filters were washed twice with 1 mL of ice-cold buffer. […] Scatchard parameters (Kd and Bmax) and apparent inhibition constants (Ki) were determined by nonlinear curve fitting using GraphPad Prism (version 5.0).[64]

[3] = Fluorescence spectroscopy and quantum yield measurements; format: physicochemical
σ1 receptor [4] = molecular target: T2, σ1 receptor (Cavia porcellus, UniProt Q60492); experiment: σ1 receptor radioligand binding assay with (+)-[3H]pentazocine, guinea pig brain membranes; details: mean of at least two experiments in duplicate, read-out: Ki ± SEM σ1
T2 construct: from tissue; host or cells: guinea pig brain without cerebellum (male Dunkin guinea pigs, Envigo)
Method: as §1

σ2 receptor [5] = molecular target: T3, σ2 receptor (Homo sapiens, UniProt Q5BJF2); experiment: Flow cytometry studies in MCF7 and MCF7KO cells; format: cell-based; design: This cell line was selected on the basis of its high σ2 receptor expression levels; endogenous in cells; host or cells: MCF7 (and MCF7KO, partial TMEM97 knockdown by shRNA); details: flow cytometry, data not shown
Method: Subsequently, the cells were harvested by trypsinization and resuspended in 250 μL of FACS-PBS. The fluorescence intensity was measured by flow cytometry using a BD LSRFortessaTM X-20 cell analyzer (Becton Dickinson, Palo Alto, CA). For this, in total 20000 cells per sample were evaluated. The results were analyzed and quantified using BD FACSDivaTM software.

σ2 receptor [6] = details: cited from earlier work
σ2 receptor [7] = molecular target: T3, σ2 receptor; experiment: Flow cytometry σ2 receptor binding assay with fluorescent ligand in place of the radioligand, MCF7 cells; design: This cell line was selected on the basis of its high σ2 receptor expression levels; endogenous in cells; host or cells: MCF7 (and MCF7KO, partial TMEM97 knockdown by shRNA)
Method: Similarly, 2 × 10^5 MCF7 cells/well were seeded in a 12-well plate and allowed to recover for 24 h at 37 °C.
At the end of the incubation periods, cells were washed twice with PBS, detached with 200 mL of Cell Dissociation Solution (Sigma Chemical Co.) for 10 min at 37 °C, centrifuged at 13000g for 5 min, and resuspended in 500 mL of PBS. The fluorescence was recorded using a Bio-Guava easyCyte 5 Flow Cytometry System (Millipore, Billerica, MA), with a 530 nm band-pass filter. For each analysis, 50000 events were collected and analyzed with the InCyte software (Millipore).

[8] = Figure 1 reference compounds and fluorescent ligands, read-out: σ2 Ki

T2 sequence (Q60492 whole entry): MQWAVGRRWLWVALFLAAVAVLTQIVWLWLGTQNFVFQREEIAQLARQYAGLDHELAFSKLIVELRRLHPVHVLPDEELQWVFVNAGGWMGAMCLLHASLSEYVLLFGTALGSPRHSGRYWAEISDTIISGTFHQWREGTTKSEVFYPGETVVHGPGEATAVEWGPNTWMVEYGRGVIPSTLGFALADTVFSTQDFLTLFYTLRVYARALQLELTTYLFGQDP
T3 sequence (Q5BJF2 whole entry): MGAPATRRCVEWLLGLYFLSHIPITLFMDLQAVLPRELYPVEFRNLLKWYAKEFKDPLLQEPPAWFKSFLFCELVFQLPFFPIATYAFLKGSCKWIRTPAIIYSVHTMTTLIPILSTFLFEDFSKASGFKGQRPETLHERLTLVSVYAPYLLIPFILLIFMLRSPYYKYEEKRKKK

COc1cc2c(cc1OC)CN(CCCN1CCc3c(OCCCCCCN4C(=O)c5ccc(N(C)C)cc5C4=O)cccc3C1=O)CC2 [Compound 3]
Ki (σ1 receptor [1]): > 5000 nM

C[N+]1=C(/C=C/C=C/C=C/C=C2\N(CCCCCC(=O)NCCCCCCn3cc(CCCCN4CCC5(CC4)OCc4ccccc45)c4ccccc43)c3ccccc3C2(C)C)C(C)(C)c2ccccc21.[I-] [Compound 20, 2-{(1E,3E,5E)-7-[(E)-1-{6-[(6-{3-[4-(3H-Spiro[isobenzofuran-1,4′-piperidin]-1′-yl)butyl]-1H-indol-1-yl}hexyl)amino]-6-oxohexyl}-3,3-dimethylindolin-2-ylidene]hepta-1,3,5-trien-1-yl}-1,3,3-trimethyl-3H-indol-1-ium]
Ki (σ2 receptor [2]): 39.8 ± 4.2 nM | quantum yield ([3]; CHCl3): 39.08% | λem ([3]; CHCl3): 787 nm | λex ([3]; CHCl3): 762 nm | Ki (σ1 receptor [4]): 88.8 ± 15.1 nM

O=C(COc1ccc(-c2ccc3n2[B-](F)(F)[N+]2=C(c4cccs4)C=CC2=C3)cc1)NCCCCCCn1cc(CCCCN2CCC3(CC2)OCc2ccccc23)c2ccccc21 [Compound 18, N-(6-{3-[4-(3H-Spiro[isobenzofuran-1,4′-piperidin]-1′-yl)butyl]-1H-indol-1-yl}hexyl)-2-{4-[5,5-difluoro-7-(thiophen-2-yl)-5H-5λ^4,6λ^4-dipyrrolo[1,2-c:2′,1′-f][1,3,2]diazaborinin-3-yl]phenoxy}acetamide]
Ki (σ2 receptor [2]): 220 ± 12 nM | λem ([3]; dissolved in CH3OH): 630 ^b nm | λex ([3]; dissolved in CH3OH): 587 ^b nm | Ki (σ1 receptor [4]): 473 ± 30 nM

CN(C)c1ccc2c(c1)C(=O)N(CCCCCCn1cc(CCCCN3CCC4(CC3)OCc3ccccc34)c3ccccc31)C2=O [Compound 17, 2-(6-{3-[4-(3H-Spiro[isobenzofuran-1,4′-piperidin]-1′-yl)butyl]-1H-indol-1-yl}hexyl)-5-(dimethylamino)isoindoline-1,3-dione]
Ki (σ2 receptor [2]): 3.84 ± 0.8 nM | σ2 selectivity over σ1 (σ2 receptor [2]): 3–10 fold | quantum yield ([3]; CHCl3): 6.85% and 6.80% | λem ([3]; CHCl3): 490 nm | λex ([3]; CHCl3): 395 nm | signals in MCF7 cells (σ2 receptor [5]): dose-dependent signals | signals in MCF7 cells upon administration of 2 (σ2 receptor [5]): abated | Ki (σ1 receptor [4]): 38.1 ± 5.2 nM

CC1CCN(CCCCc2cccc3cc(OCCCCCCN4C(=O)c5ccc(N(C)C)cc5C4=O)ccc23)CC1 [Compound 5]
Ki (σ2 receptor [6]; [8]): 45.6 nM | Ki (σ1 receptor [1]): 5.2 nM

C[N+]1=C(/C=C/C=C/C=C/C=C2/N(CCCCCC(=O)Nc3ccc4ccn(CCCCN5CCC6(CC5)OCc5ccccc56)c4c3)c3ccccc3C2(C)C)C(C)(C)c2ccccc21.[I-] [Compound 30, 2-[(1E,3E,5E)-7-{(Z)-1-[6-({1-[4-(3H-Spiro[isobenzofuran-1,4′-piperidin]-1′-yl)butyl]-1H-indol-6-yl}amino)-6-oxohexyl]-3,3-dimethylindolin-2-ylidene}hepta-1,3,5-trien-1-yl]-1,3,3-trimethyl-3H-indol-1-ium]
Ki (σ2 receptor [2]): 39.4 ± 6.1 nM | σ2 selectivity over σ1 (σ2 receptor [2]): ~10 fold | quantum yield ([3]; CHCl3): 40.24% | λem ([3]; CHCl3): 787 nm | λex ([3]; CHCl3): 762 nm | Ki (σ1 receptor [4]): 569 ± 85 nM

O=C(COc1ccc(C2=[N+]3C(=Cc4ccc(-c5cccs5)n4[B-]3(F)F)C=C2)cc1)Nc1ccc2ccn(CCCCN3CCC4(CC3)OCc3ccccc34)c2c1 [Compound 28, N-{1-[4-(3H-Spiro[isobenzofuran-1,4′-piperidin]-1′-yl)butyl]-1H-indol-6-yl}-2-{4-[5,5-difluoro-7-(thiophen-2-yl)-5H-5λ^4,6λ^4-dipyrrolo[1,2-c:2′,1′-f][1,3,2]diazaborinin-3-yl]phenoxy}acetamide]
λem ([3]; dissolved in CH3OH): 630 ^b nm | λex ([3]; dissolved in CH3OH): 587 ^b nm | Ki (σ1 receptor [4]): > 5000 nM

c1ccc2c(c1)COC21CCN(CCCCn2ccc3ccccc32)CC1 [Compound 8, reference compound]
σ2 selectivity over σ1 (σ2 receptor [2]): 60 fold | Ki (σ2 receptor [6]; [8]): 0.43 nM

COc1cc2c(cc1OC)CN(CCCN1CCc3c(OC)cccc3C1=O)CC2 [Compound 2]
Ki (σ2 receptor [6]; [8]): 4.24 nM | Ki (σ1 receptor [1]): 2440 nM | Ki (σ2 receptor [7]; displacement of compound 19 (100 nM)): 4.07 nM | Ki (σ2 receptor [7]; displacement of compound 29 (100 nM)): 5.04 nM

CC1CCN(CCOc2ccc(Cl)cc2)CC1 [Compound 31, 1-[2-(4-chlorophenoxy)ethyl]-4-methylpiperidine]
Ki (σ2 receptor [6]; read-out: Ki at the σ2 receptor): 239 nM

CN(C)c1ccc2c(c1)C(=O)N(CCCn1cc(CCCCN3CCC4(CC3)OCc3ccccc34)c3ccccc31)C2=O [Compound 16, 2-(3-{3-[4-(3H-Spiro[isobenzofuran-1,4′-piperidin]-1′-yl)butyl]-1H-indol-1-yl}propyl)-5-(dimethylamino)isoindoline-1,3-dione]
Ki (σ2 receptor [2]): 10.1 ± 1.1 nM | σ2 selectivity over σ1 (σ2 receptor [2]): 3–10 fold | quantum yield ([3]; CHCl3): 6.85% | λem ([3]; CHCl3): 490 nm | λex ([3]; CHCl3): 395 nm | signals in MCF7 cells (σ2 receptor [5]): dose-dependent signals | signals in MCF7 cells upon administration of 2 (σ2 receptor [5]): abated | Ki (σ1 receptor [4]): 39.3 ± 9 nM

CN(C)c1ccc2c(c1)C(=O)N(c1ccc3ccn(CCCCN4CCC5(CC4)OCc4ccccc45)c3c1)C2=O [Compound 23, 2-{1-[4-(3H-Spiro[isobenzofuran-1,4′-piperidin]-1′-yl)butyl]-1H-indol-6-yl}-5-(dimethylamino)isoindoline-1,3-dione]
Ki (σ2 receptor [2]): 5.07 ± 1.07 nM | σ2 selectivity over σ1 (σ2 receptor [2]): 60 fold | quantum yield ([3]; CHCl3): 1.31% | λem ([3]; CHCl3): 490 nm | λex ([3]; CHCl3): 395 nm | signals in MCF7 cells (σ2 receptor [5]): dose-dependent signals | signals in MCF7 cells upon administration of 2 (σ2 receptor [5]): abated | Ki (σ1 receptor [4]): 296 ± 71 nM
